From PubChem BioAssay (NCI)
Several values for one entry are separate records, joined by “and”; a condition that tells them apart may be missing. Equal values may be shown once.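 Growth conditions: 96-well plates. Treatment: test compound, 48 hours, 5 concentrations. Analysis: linear interpolation between bracketing concentrations; unreached endpoints set to highest concentration. Abbreviation: GI50, concentration required for 50% inhibition of growth. TGI is the concentration that stops growth completely.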

Key:
Assay in all cases: growth of human tumour cells (NCI), 48 h
786-0 renal = test system: 786-0 renal
DU-145 prostate = test system: DU-145 prostate
HCT-15 colon = test system: HCT-15 colon
HL-60(TB) leukemia = test system: HL-60(TB) leukemia
NCI-H23 lung = test system: NCI-H23 lung
OVCAR-3 ovarian = test system: OVCAR-3 ovarian
OVCAR-5 ovarian = test system: OVCAR-5 ovarian
SW-620 colon = test system: SW-620 colon
T-47D breast = test system: T-47D breast
TK-10 renal = test system: TK-10 renal

SMILES	GI50 (786-0 renal)	TGI (786-0 renal)	GI50 (DU-145 prostate)	TGI (DU-145 prostate)	GI50 (HCT-15 colon)	TGI (HCT-15 colon)	GI50 (HL-60(TB) leukemia)	TGI (HL-60(TB) leukemia)	GI50 (NCI-H23 lung)	TGI (NCI-H23 lung)	GI50 (OVCAR-3 ovarian)	TGI (OVCAR-3 ovarian)	GI50 (OVCAR-5 ovarian)	TGI (OVCAR-5 ovarian)	GI50 (SW-620 colon)	TGI (SW-620 colon)	GI50 (T-47D breast)	TGI (T-47D breast)	GI50 (TK-10 renal)	TGI (TK-10 renal)
COC(=O)[C@]12CC[C@@H](C)[C@H](C)[C@@H]1C1=CC[C@@H]3[C@@]4(C)C(C=O)=C[C@@](C)(COS(C)(=O)=O)C4[C@H](O)C[C@@]3(C)[C@]1(C)CC2 (some centres not stated)	1.79 µM	3.58 µM	1.69 µM	3.41 µM	1.34 µM	2.87 µM	1.17 µM	4.24 µM	1.68 µM	3.63 µM	1.7 µM	3.33 µM	1.96 µM	6.5 µM	2.36 µM	5.7 µM	1.8 µM	5.93 µM	2 µM	4.91 µM
COc1ccc(-c2cc(-c3cccc(NS(C)(=O)=O)c3)nc(N)c2C#N)cc1	0.283 µM	13.7 µM	0.164 µM	8.82 µM	0.108 µM	19.4 µM	0.0637 µM	1.26 µM	0.256 µM	39.8 µM	0.0298 µM	0.115 µM	0.416 µM	> 64.6 µM	0.048 µM	> 100 µM	0.362 µM	13.7 µM	0.278 µM	> 47.5 µM
OCC(CCc1c[nH]c2ccccc12)c1c[nH]c2ccccc12 (configuration not stated)		29.5 µM		32.7 µM		32.2 µM		26.6 µM		30 µM		> 100 µM		33.2 µM		29.4 µM		35.6 µM		37.8 µM
CC(C)C[C@H](NC(=O)CCn1ccc2ncccc2c1=O)B(O)O	14 µM	> 100 µM	19.6 µM	> 100 µM	28.1 µM	> 100 µM	6.88 µM	> 100 µM	14.9 µM	> 100 µM	4.1 µM	20.6 µM	23.2 µM	> 100 µM	4.23 µM	> 45.9 µM	5.31 µM	> 55 µM	6.44 µM	61.8 µM
Cc1ccc(Nc2cc(C)nc(NCCCNc3ccnc4cc(Cl)ccc34)n2)cc1	1.73 µM	3.31 µM	1.97 µM	4.14 µM	0.767 µM	2.21 µM	1.84 µM	4.81 µM	1.78 µM	3.63 µM	1.7 µM	3.5 µM	1.85 µM	4.62 µM	1.31 µM	2.83 µM	1.75 µM	4.14 µM	1.81 µM	3.29 µM
O=C(CCSc1ccnc2c(C(F)(F)F)cccc12)N/N=C/c1cc(Cl)c(Cl)cc1Cl	20.3 µM	35.1 µM	18.2 µM	40 µM	20 µM	36.5 µM	32.2 µM	58 µM	24.1 µM	52.1 µM	20 µM	44.5 µM	26.1 µM	64.6 µM	23.8 µM	43.4 µM	22 µM	59.9 µM	33.6 µM	72.4 µM
Nc1nccc2c1ncn2C1OC(CO)C(O)C1O (configuration not stated)	> 100 µM	> 100 µM	> 100 µM	> 100 µM	75.8 µM	> 100 µM	> 100 µM	> 100 µM	> 100 µM	> 100 µM	> 100 µM	> 100 µM	> 100 µM	> 100 µM	92.4 µM	> 100 µM	> 100 µM	> 100 µM	> 100 µM	> 100 µM
COc1cc2c3c(n(CCCBr)c(=O)c2cc1OC)-c1ccc(F)cc1C3=O	4.73 µM	17.9 µM	4.33 µM	20.6 µM	48.7 µM	> 100 µM	24.8 µM	> 100 µM	17.8 µM	76.4 µM	24.6 µM	99.6 µM	50 µM	> 100 µM	7.02 µM	> 100 µM	4.86 µM	62 µM	32.7 µM	> 100 µM
CN1C[C@@H]2Cn3c(c(C4=C(c5cn(C)c6ccccc56)C(=O)NC4=O)c4ccccc43)C[C@H]2C1	4.75 µM and 4.57 µM	9.33 µM and 8.9 µM	6.27 µM and 5.46 µM	16.3 µM and 14.7 µM	4.41 µM and 3.58 µM	13.1 µM and 10.9 µM	5.48 µM and 3.63 µM	10.5 µM and 8.53 µM	4.96 µM and 6.11 µM	10.7 µM and 15.3 µM	4.42 µM and 4.64 µM	9.42 µM and 10.9 µM	6.86 µM and 5.42 µM	23.1 µM and 17.2 µM	4.34 µM and 3.22 µM	9.21 µM and 8.94 µM	4.26 µM and 5.32 µM	9.46 µM and 11.5 µM	3.5 µM and 3.74 µM	7.6 µM and 8.41 µM
NS(=O)(=O)c1ccc(-n2ncc3c(Nc4ccccc4)ncnc32)cc1	18.3 µM	55.7 µM	35.6 µM	> 100 µM	19.1 µM	> 100 µM	6.59 µM	92.7 µM	1.37 µM	23.8 µM	38.2 µM	> 100 µM	34.9 µM	> 100 µM	30.3 µM	> 100 µM	24.2 µM	> 100 µM	19.1 µM	> 100 µM
CCC1(NC(=O)c2cc(F)c(F)c(F)c2F)C(=O)NC(=O)N(C(C)C)C1=O (configuration not stated)	> 100 µM	> 100 µM	33.7 µM	> 100 µM	8.05 µM	> 100 µM	3.82 µM	24.9 µM	16.5 µM	61.5 µM	23.9 µM	53.1 µM	> 100 µM	> 100 µM	20.1 µM	50.7 µM	> 100 µM	> 100 µM	> 100 µM	> 100 µM
Cc1cc(C)c(S(=O)(=O)N(CCc2cccc(Br)c2)Cc2ccc(-c3cccc(S(C)(=O)=O)c3)cc2)c(C)c1	> 100 µM	> 100 µM	> 100 µM	> 100 µM	> 100 µM	> 100 µM	> 100 µM	> 100 µM	> 100 µM	> 100 µM	> 100 µM	> 100 µM	> 100 µM	> 100 µM	> 100 µM	> 100 µM	> 100 µM	> 100 µM	> 100 µM	> 100 µM
CN(C)CCSCCO		> 100 µM		> 100 µM		> 100 µM		> 100 µM		> 100 µM		> 100 µM		> 100 µM		> 100 µM		> 100 µM		> 100 µM
N#Cc1nc2c(S(=O)(=O)c3ccccc3)c(N)n(Cc3ccc(Cl)cc3)c2nc1C#N	7.08 µM	15.6 µM	15 µM	> 50 µM	24.2 µM	> 50 µM	47.3 µM	> 50 µM	6.46 µM	38.6 µM	12 µM	> 50 µM	13 µM	> 50 µM	17 µM	> 50 µM	15.5 µM	46.4 µM	12.2 µM	26.5 µM
Nc1ccc(C(OC(=O)c2cc3ccccc3c(Cc3c(O)c(C(=O)OC(c4ccc(N)cc4)(c4ccc(N)cc4)c4ccc(N)cc4)cc4ccccc34)c2O)(c2ccc(N)cc2)c2ccc(N)cc2)cc1	1.76 µM	20.2 µM	2.18 µM	15 µM	4.01 µM	> 100 µM	4.04 µM	23.3 µM	0.645 µM	17.3 µM	1.25 µM	3.76 µM	2.7 µM	17.2 µM	1.14 µM	13.9 µM	0.405 µM	18.9 µM	5.23 µM	21.3 µM
COc1c(Cl)ccc2c(-c3nc4cc(Cl)c(F)cc4s3)cc(=O)oc12	2.64 µM	5.65 µM	13.9 µM	39.9 µM	11.7 µM	51 µM	2.44 µM	5.39 µM	3.25 µM	> 73.7 µM	3.94 µM	22 µM	15.3 µM	> 53.3 µM	10.3 µM	> 100 µM	13 µM	45.5 µM	17.4 µM	46.1 µM
NCCCN1CCN(CCCNc2nc3ccccc3c3[nH]c4ccccc4c23)CC1	0.421 µM	2.94 µM	0.299 µM	7.83 µM	0.436 µM	7.83 µM	0.425 µM	3.26 µM	0.387 µM	1.44 µM	0.659 µM	4.58 µM	0.292 µM	1.48 µM	0.326 µM	7.66 µM	0.561 µM	6.85 µM	0.81 µM	11.1 µM
C=C1C(OC/C=C/COC2O[C@@H]3O[C@@]4(C)CC[C@H]5[C@H](C)CC[C@@H](C2=C)[C@@]35OO4)O[C@@H]2O[C@@]3(C)CC[C@H]4[C@H](C)CC[C@@H]1[C@@]24OO3 (some centres not stated)	0.578 µM	18.7 µM	15.5 µM	37.6 µM	< 0.0194 µM	16 µM		47.1 µM	0.0708 µM	14.2 µM		11.4 µM	0.0489 µM	18.8 µM	0.0863 µM	23.6 µM	0.0158 µM	21.2 µM	0.492 µM	16.9 µM
Cc1ccc2nc(-c3ccc(N)c4ccccc34)[nH]c2c1	0.161 µM	20.9 µM	0.437 µM	24.8 µM	< 0.0425 µM	13.4 µM	0.102 µM	3.29 µM	0.159 µM	23.9 µM	0.748 µM	1.85 µM	0.326 µM	> 73.3 µM		27.5 µM	9.1 µM	> 100 µM	0.878 µM	59.6 µM
Clc1cc(-c2ccccc2)nc2ccccc12		> 100 µM		> 100 µM		36.5 µM		53.3 µM		> 100 µM		> 100 µM		> 100 µM		> 100 µM		> 100 µM		71.6 µM
Clc1ccc(CNc2nccc(-c3cnn4ncccc34)n2)cc1	9.19 µM	24.4 µM	8.73 µM	> 25 µM	8.5 µM	> 25 µM	8.69 µM	> 22.3 µM	6.74 µM	22.8 µM	7.32 µM	21.6 µM	7.66 µM	24.7 µM	8.42 µM	> 25 µM	5.26 µM	> 25 µM	8.71 µM	> 23.5 µM
